Results published in ChEMBL document CHEMBL5584229, “Application and challenges of nitrogen heterocycles in PROTAC linker” (Eur J Med Chem, 2024).
Values belong to the molecule of their own block, whether it stands above or below them.

How the values were obtained:
A549 = test: Cytotoxicity against human A549 cells assessed as reduction in cell growth incubated for 5 days by MTT assay; type: functional, cell-based; details: A549, 120 h
[1] = biological target: E3 ubiquitin-protein ligase Mdm2/Histone deacetylase 1 (Homo sapiens) (UniProt Q00987+Q13547); test: PROTAC activity at MDM2/HDAC1 in human HCT-116 cells assessed as induction of HDAC1 degradation at 10 uM by Western blot analysis relative to control; type: cell-based
[2] = tested on: von Hippel-Lindau disease tumor suppressor/Epidermal growth factor receptor (Homo sapiens), P00533+P40337 [UNDEFINED MUTATION]; test: PROTAC activity at VHL/EGFR del19 mutant in human HCC827 cells assessed as maximal degradation incubated for 24 hrs by immunoblot analysis relative to control; type: cell-based
HeLa = test: Antiproliferative activity against human HeLa cells assessed as reduction in cell viability incubated for 24 hrs by MTT assay; type: functional, cell-based
[3] = biological target: T1, Protein cereblon/Receptor-type tyrosine-protein kinase FLT3 (Homo sapiens, UniProt P36888+Q96SW2); test: PROTAC activity at CRBN/FLT3-ITD mutant in human MV4-11 cells assessed as protein degradation by Western blot analysis; type: cell-based
[4] = biological target: T1, Protein cereblon/Receptor-type tyrosine-protein kinase FLT3; test: PROTAC activity at CRBN/FLT3 in human MV4-11 cells harboring FLT3-ITD mutation assessed as induction of FLT3 degradation incubated for 24 hrs by immunoblotting analysis; type: cell-based
[5] = biological target: T2, Protein cereblon/ALK tyrosine kinase receptor (Homo sapiens, UniProt Q9UM73+Q96SW2); test: PROTAC activity at CRBN/ALK in human NCI-H3122 cells assessed as induction of ALK degradation by measuring maximal degradation at […] incubated for 24 hrs by Western blot analysis; type: cell-based
[6] = biological target: T2, Protein cereblon/ALK tyrosine kinase receptor; test: PROTAC activity at CRBN/ALK in human NCI-H3122 cells assessed as induction of ALK degradation incubated for 24 hrs by Western blot analysis; type: cell-based
Target sequence in this assay (Q9UM73 whole entry): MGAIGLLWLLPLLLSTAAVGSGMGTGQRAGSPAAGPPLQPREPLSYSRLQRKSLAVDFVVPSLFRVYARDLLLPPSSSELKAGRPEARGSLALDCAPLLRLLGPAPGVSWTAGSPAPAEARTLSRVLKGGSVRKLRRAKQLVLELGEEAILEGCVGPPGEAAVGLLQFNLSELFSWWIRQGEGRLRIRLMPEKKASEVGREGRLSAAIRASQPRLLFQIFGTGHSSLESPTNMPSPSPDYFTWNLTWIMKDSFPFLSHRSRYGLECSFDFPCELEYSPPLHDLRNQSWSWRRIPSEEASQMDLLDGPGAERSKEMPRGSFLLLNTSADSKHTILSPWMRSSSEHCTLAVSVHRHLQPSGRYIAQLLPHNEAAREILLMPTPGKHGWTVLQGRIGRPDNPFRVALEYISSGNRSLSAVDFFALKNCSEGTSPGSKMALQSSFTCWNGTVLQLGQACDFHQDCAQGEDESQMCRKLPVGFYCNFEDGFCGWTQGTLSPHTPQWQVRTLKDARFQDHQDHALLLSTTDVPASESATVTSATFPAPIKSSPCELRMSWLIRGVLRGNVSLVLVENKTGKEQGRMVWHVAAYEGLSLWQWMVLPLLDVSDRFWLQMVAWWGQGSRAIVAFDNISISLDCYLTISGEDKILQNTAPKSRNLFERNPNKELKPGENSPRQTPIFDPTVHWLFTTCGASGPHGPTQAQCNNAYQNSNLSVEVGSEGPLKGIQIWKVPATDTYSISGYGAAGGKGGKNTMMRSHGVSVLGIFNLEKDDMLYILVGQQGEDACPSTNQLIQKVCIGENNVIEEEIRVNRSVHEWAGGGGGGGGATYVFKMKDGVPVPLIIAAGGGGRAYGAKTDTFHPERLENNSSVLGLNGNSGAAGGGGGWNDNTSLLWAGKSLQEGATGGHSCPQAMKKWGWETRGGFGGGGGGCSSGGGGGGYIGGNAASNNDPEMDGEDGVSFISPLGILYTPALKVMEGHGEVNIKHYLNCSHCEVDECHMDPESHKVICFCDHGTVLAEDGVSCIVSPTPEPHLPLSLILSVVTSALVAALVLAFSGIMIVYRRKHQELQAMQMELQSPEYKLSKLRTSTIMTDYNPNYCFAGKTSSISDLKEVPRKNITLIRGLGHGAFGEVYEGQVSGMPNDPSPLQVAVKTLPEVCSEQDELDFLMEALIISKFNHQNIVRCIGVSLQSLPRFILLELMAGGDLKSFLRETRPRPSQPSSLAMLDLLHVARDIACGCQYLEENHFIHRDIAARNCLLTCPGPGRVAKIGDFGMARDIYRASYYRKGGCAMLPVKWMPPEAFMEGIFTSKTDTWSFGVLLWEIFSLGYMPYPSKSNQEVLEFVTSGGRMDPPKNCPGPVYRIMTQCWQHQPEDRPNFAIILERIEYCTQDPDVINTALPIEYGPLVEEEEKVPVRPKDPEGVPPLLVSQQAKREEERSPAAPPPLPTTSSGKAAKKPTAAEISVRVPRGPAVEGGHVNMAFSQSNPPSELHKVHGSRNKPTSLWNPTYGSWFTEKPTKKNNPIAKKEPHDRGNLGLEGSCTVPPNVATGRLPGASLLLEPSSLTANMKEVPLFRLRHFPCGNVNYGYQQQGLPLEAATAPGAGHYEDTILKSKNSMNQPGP
Target sequence in this assay (Q96SW2 whole entry): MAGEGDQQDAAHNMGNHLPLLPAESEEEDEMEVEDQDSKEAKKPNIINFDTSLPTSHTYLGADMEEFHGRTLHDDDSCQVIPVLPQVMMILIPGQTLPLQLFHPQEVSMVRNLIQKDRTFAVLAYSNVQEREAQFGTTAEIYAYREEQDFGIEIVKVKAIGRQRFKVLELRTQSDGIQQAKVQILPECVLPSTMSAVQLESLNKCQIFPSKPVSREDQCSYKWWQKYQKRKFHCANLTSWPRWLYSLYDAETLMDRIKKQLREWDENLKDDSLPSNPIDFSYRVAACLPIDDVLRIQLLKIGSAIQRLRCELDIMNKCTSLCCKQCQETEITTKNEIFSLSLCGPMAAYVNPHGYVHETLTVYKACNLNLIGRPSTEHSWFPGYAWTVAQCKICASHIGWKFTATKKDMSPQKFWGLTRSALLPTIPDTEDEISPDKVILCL

[7] = biological target: T3, von Hippel-Lindau disease tumor suppressor/Mitogen-activated protein kinase 14 (Homo sapiens, UniProt Q16539+P40337); test: PROTAC activity at VHL/N-terminal His-tagged human p38alpha in MDA-MB-231 cells assessed as p38alpha degradation; type: cell-based
[8] = biological target: Protein cereblon/Cyclin-dependent kinase 9 (Homo sapiens) (UniProt P50750+Q96SW2); test: Protac activity at CRBN/CDK9 in human HeLa cells assessed as […] at 1 uM measured after 6 hrs by Western blot analysis; type: cell-based
[9] = biological target: Protein cereblon/Androgen receptor (Homo sapiens, UniProt P10275+Q96SW2); test: PROTAC activity at AR/CRBN in human A549 cells assessed as induction of androgen receptor degradation measured after 1 hr by Western blot analysis; type: cell-based
[10] = AUC (0 to t) in ICR mouse at 2 mg/kg, iv; type: ADME, organism-based; details: in vivo
[11] = biological target: Von Hippel-Lindau disease tumor suppressor/Elongin B/Elongin C (Homo sapiens, UniProt P40337); test: Inhibition of 6xHis-tagged VHL (1 to 213 residues)/Elongin B/Elogin C (unknown origin) expressed in Escherichia coli BL21 cells by fluorescence polarization assay
[12] = biological target: T3, von Hippel-Lindau disease tumor suppressor/Mitogen-activated protein kinase 14; test: PROTAC activity at VHL/N-terminal His-tagged human p38alpha in T47D cells assessed as p38alpha degradation; type: cell-based

T3 sequence (Q16539 whole entry): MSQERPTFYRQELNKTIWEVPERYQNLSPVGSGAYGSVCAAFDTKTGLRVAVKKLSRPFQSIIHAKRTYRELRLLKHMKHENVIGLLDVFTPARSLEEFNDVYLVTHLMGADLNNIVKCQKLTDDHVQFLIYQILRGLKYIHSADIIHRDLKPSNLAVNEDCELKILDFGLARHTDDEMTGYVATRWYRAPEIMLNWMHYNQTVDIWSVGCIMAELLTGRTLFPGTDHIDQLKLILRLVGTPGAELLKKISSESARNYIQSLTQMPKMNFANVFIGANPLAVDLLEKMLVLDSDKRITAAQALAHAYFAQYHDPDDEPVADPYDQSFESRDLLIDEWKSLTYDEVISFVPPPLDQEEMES
T3 sequence (P40337 whole entry): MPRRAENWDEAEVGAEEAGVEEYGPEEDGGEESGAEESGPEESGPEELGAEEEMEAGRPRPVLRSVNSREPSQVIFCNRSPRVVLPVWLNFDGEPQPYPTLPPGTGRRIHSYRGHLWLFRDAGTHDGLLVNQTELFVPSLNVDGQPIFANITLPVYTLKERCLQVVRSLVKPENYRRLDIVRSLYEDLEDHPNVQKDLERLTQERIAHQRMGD
T1 sequence (P36888 whole entry, looked up, change not shown): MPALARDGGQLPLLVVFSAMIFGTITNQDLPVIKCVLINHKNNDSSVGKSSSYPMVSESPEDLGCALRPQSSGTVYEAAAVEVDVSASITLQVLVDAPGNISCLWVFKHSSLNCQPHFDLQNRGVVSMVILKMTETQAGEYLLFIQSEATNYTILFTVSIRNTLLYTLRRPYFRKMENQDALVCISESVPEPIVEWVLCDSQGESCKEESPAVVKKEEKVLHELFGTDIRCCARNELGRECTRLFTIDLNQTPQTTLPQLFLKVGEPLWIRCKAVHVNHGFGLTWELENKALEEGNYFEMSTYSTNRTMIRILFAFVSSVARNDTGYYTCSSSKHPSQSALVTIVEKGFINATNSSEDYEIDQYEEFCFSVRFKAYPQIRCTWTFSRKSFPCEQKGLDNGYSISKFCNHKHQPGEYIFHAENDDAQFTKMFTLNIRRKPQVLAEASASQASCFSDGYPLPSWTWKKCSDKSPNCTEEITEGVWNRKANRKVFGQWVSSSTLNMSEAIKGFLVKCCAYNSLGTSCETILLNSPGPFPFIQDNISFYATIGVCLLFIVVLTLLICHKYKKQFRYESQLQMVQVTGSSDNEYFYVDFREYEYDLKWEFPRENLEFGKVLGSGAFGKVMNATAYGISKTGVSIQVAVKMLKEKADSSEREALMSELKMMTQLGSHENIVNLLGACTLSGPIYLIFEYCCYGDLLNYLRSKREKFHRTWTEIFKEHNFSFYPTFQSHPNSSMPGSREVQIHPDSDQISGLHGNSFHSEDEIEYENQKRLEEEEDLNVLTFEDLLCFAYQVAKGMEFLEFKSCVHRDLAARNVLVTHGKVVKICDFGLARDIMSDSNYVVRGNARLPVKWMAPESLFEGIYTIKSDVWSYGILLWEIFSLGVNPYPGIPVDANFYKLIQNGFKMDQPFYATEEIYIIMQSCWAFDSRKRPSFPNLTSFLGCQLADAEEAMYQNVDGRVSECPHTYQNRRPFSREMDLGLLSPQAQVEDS
T1 sequence (Q96SW2 whole entry, looked up, change not shown): as the sequence (Q96SW2 whole entry) above
Chain of von Hippel-Lindau disease tumor suppressor/Epidermal growth factor receptor (Homo sapiens), P00533+P40337 [UNDEFINED MUTATION] (P00533 whole entry, looked up, stated change not applied): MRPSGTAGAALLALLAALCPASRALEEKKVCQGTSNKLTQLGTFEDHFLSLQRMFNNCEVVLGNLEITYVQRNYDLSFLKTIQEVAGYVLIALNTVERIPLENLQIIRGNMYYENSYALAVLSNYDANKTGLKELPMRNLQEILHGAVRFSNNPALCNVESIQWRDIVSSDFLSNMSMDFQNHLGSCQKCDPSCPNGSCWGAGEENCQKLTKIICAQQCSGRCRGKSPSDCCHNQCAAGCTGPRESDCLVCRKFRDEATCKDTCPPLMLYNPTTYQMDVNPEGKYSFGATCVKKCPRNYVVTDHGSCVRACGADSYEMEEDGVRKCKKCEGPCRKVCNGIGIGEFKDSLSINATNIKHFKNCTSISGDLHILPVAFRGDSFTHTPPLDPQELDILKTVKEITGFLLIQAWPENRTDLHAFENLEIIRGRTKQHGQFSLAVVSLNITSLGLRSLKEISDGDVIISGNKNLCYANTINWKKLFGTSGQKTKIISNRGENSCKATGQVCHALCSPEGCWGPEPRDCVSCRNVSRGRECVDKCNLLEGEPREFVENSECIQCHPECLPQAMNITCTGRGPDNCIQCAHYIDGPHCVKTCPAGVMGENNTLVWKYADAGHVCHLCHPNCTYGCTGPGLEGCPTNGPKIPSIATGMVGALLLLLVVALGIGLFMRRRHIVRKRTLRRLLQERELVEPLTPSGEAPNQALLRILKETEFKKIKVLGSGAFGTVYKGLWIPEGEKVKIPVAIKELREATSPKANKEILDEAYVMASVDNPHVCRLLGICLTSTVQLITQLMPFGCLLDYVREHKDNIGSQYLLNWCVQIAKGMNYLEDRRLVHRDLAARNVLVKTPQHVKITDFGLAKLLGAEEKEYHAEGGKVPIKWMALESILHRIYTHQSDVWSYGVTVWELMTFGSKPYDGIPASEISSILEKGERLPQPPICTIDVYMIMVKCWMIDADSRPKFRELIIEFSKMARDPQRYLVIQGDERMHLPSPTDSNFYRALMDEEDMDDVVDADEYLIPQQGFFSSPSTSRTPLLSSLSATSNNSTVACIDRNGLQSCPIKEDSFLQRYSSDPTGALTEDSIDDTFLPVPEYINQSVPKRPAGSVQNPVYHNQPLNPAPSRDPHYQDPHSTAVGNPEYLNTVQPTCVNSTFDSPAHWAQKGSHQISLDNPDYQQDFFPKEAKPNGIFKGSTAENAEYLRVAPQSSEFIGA
Chain of von Hippel-Lindau disease tumor suppressor/Epidermal growth factor receptor (Homo sapiens), P00533+P40337 [UNDEFINED MUTATION] (P40337 whole entry, looked up, stated change not applied): as the sequence (P40337 whole entry) above
Chain of Von Hippel-Lindau disease tumor suppressor/Elongin B/Elongin C (P40337 whole entry, looked up, the tested form may be a part): as the sequence (P40337 whole entry) above

Emax [1]: 65.4%
SMILES: COC(C)(C)CCC[C@@](C)(O)[C@H]1CC[C@]2(C)[C@@H]1[C@H](O)C[C@@H]1[C@@]3(C)CC[C@H](OCC(=O)N4CCC(CN5CCN(c6ccc7c(c6)CN(C6CCC(=O)NC6=O)C7=O)CC5)CC4)C(C)(C)[C@@H]3CC[C@]12C (some centres not stated)
IC50 (A549): 2160 nM

SMILES: Cc1ncsc1-c1ccc(CNC(=O)[C@@H]2C[C@@H](O)CN2C(=O)[C@@H](NC(=O)CCCCCCCCCCn2cc(COc3cc4ncnc(Nc5ccc(F)c(Cl)c5)c4cc3NC(=O)/C=C/CN3CCCCC3)nn2)C(C)(C)C)cc1
Emax [2]: 91%

IC50 (HeLa): 4300 nM
SMILES: CC1(NCc2cn(CCOCCOCCOCCOCCNc3cccc4c3C(=O)N(C3CCC(=O)NC3=O)C4=O)nn2)CCN(c2cnc(-c3cccc(Cl)c3Cl)c(N)n2)CC1 (configuration not stated)

SMILES: CC(C)(C)c1cc(NC(=O)Nc2ccc(-c3cn(CCCCc4cn(CCCCC(=O)Nc5cccc6c5CN(C5CCC(=O)NC5=O)C6=O)nn4)c4ncnc(N)c34)cc2)no1 (configuration not stated)
DC50 [3]: 76.7 nM
DC50 [4]: 7850 nM

Emax [5]: > 99%
DC50 [6]: 0.77 nM
SMILES: N#Cc1cccc(-c2ccc(=O)n(Cc3cccc(-c4ncc(OCC5CCN(CC(=O)NCCOCNc6ccc7c(c6)C(=O)N(C6CCC(=O)NC6=O)C7=O)CC5)cn4)c3)n2)c1 (configuration not stated)

DC50 [7]: 11.6 nM
SMILES: Cc1ccc(C(=O)NCCCc2cn(CCCC(=O)NCCCCCC(=O)N[C@H](C(=O)N3C[C@H](O)C[C@H]3C(=O)N[C@@H](C)c3ccc(-c4scnc4C)cc3)C(C)(C)C)nn2)cc1-n1c(C)cc(OCc2ccc(F)cc2F)c(Br)c1=O

Emax [8]: 61.2%
SMILES: O=C1CCC(N2C(=O)c3cccc(NC(=O)CCCCCCCn4cc(COc5c(O)cc(O)c6c(=O)cc(-c7ccccc7)oc56)nn4)c3C2=O)C(=O)N1 (configuration not stated)

DC50 [9]: 75 nM
SMILES: CC1(C)C(=O)N(c2ccc(C#N)c(C(F)(F)F)c2)C(=S)N1c1ccc(-c2ccc(O[C@@H]3CCN(C(=O)C4CCN(c5ccc6c(c5)C(=O)N(C5CCC(=O)NC5=O)C6=O)CC4)C3)cc2)cc1 (some centres not stated)

DC50 [6]: 0.35 nM
SMILES: N#Cc1cccc(-c2ccc(=O)n(Cc3cccc(-c4ncc(OCC5CCN(CC(=O)N6CCN(c7ccc8c(c7)C(=O)N(C7CCC(=O)NC7=O)C8=O)CC6)CC5)cn4)c3)n2)c1 (configuration not stated)

AUC(0-t) [10]: 24500 ng·h/mL
SMILES: NC(=O)c1cccc2cn(-c3ccc(C4CCCN(CCC5CCN(CCC6CCN(c7ccc8c(c7)C(=O)N(C7CCC(=O)NC7=O)C8=O)CC6)CC5)C4)cc3)nc12 (configuration not stated)

DC50 [6]: 0.6 nM
SMILES: N#Cc1cccc(-c2ccc(=O)n(Cc3cccc(-c4ncc(OCC5CCN(CC(=O)N6CCN(CCNc7ccc8c(c7)C(=O)N(C7CCC(=O)NC7=O)C8=O)CC6)CC5)cn4)c3)n2)c1 (configuration not stated)

IC50 [11]: 6.8 nM
SMILES: CCCS(=O)(=O)Nc1ccc(F)c(C(=O)c2c[nH]c3ncc(-c4ccc(N5CCN(CC(=O)N[C@H](C(=O)N6C[C@H](O)C[C@H]6C(=O)NCc6ccc(-c7scnc7C)cc6)C(C)(C)C)CC5)cc4)cc23)c1F

DC50 [7]: 18.4 nM
DC50 [12]: 2.9 nM
SMILES: C=C1c2cccc(NCCCCCCNC(=O)CCCn3cc(CCCCNC(=O)c4ccc(C)c(-n5c(C)cc(OCc6ccc(F)cc6F)c(Br)c5=O)c4)nn3)c2C(=O)N1C1CCC(=O)NC1=O (configuration not stated)
